# Measurements published in PMC6588243, “Fate of ptaquiloside—A bracken fern toxin—In cattle” (PLoS ONE, 2019).
# Several values for one entry are separate records, joined by “and”; a condition that tells them apart may be missing. Equal values may be shown once. Entries after “also recorded” stand apart in the source; their conditions may differ.
# Columns and labels:
# [1] = Urinary recovery of PTA and PTB after intravenous administration of PTA; assay type: in vivo, Jersey heifers; settings: twelve hours after iv administration of PTA
# Method: Intravenous administration of PTA. In Experiment 1 the dose of purified PTA (0.21 mg kg^-1 body weight (b.w.) / 0.527 μmoles kg^-1) was dissolved in 10 mL of sterile water in a brown glass vial 1 hour before administration and protected from light. The solution was injected through a catheter (Cavafix Certo: 45 cm, 16 G; B. Braun Melsungen AG, Melsungen, Germany) placed in the right jugular vein. Blood samples were collected through another catheter placed in the left jugular vein. Blood samples were collected in heparinized glass tubes before and at predetermined times (10, 20, 30, 45 min and 1, 2, 4, 6, 8, 12, 21 and 24 hours) after PTA administration. The blood was centrifuged for 15 min at 3000 g to separate plasma which then was stored immediately at -18°C until assayed within a week following the method of Aranha et al.. Urine was collected quantitatively in urinary bags (Ratiomed GmBH, München, Germany) through a Foley catheter (Rusch Silasil no 16; Teleflex, Milan, Italy) inserted into the bladder. […]
# (§1) PTA and PTB were analysed by LC-MS after purification using solid phase extraction (SPE) columns as reported in Aranha et al.. The limit of quantification of PTA and PTB in plasma was 3.0 x 10^−3 μM and 9.30 x 10^−3 μM, respectively. Limit of quantifications in diluted urine was 13 x 10^−3 μM for PTA and 8.28 x 10^−3μM for PTB.
# [2] = Urinary recovery after oral administration of bracken extract or dried bracken fern; assay type: in vivo, Jersey heifers; settings: for PTB recovered in urine: oral bracken extract or dried fern, within 24 hours
# Method: Oral exposure, bracken extract. Bracken extract was administered orally by gavage in Experiment 2 (170 and 172 mL) and Experiment 5 (820 and 850 mL), to obtain PTA doses of 0.41 and 2 mg kg^-1 b.w (1.025 and 5.000 μmoles kg^-1), respectively. Blood and urine samples were collected up to 48 hours after gavage and samples were processed and stored as described previously.
# Oral exposure, dried bracken fern. In Experiment 3, dried bracken fern was milled to a fine powder. Immediately before administration, the powder was mixed with water to produce a slurry (15 g of bracken per 100 mL of water). The slurry was administered orally by gavage (400 mL and 380 mL) corresponding to a PTA dose of 1.6 mg kg^-1 b.w (4 μmoles kg^-1). Blood and urine samples were collected up to 72 hours after gavage and the samples were processed and stored as described above.
# as §1
# [3] = Incubation of bracken extract in rumen liquid, in vitro; assay type: in vitro ADME, Jersey cows; settings: for PTB concentration in rumen liquid: initial PTA 17 μM
# Method: Samples of rumen contents were collected from two rumen fistulated Jersey cows. The cows were fed daily with 6 kg of complete feedingstuff (Danish Ragna Grønmix; Danish Agro, Karise, Denmark) and 2 kg of hay. Barley straw and water were provided ad libitum. The rumen liquid fraction was obtained by passing the digest through a 250 μm nylon filter. From each cow, 150 mL rumen liquid was pre-incubated at 37°C under CO2 atmosphere for 10 min before 5 mL of bracken extract was added in order to obtain an initial PTA concentration of 17 μM. PTA stability was assessed by removal of 2.5 mL sample for PTA determination after incubation for 0, 5, 15, 30, 60 and 120 min at 37 °C. The sample was immediately centrifuged for 3 min at 8,500 g and analysed following the method of Aranha et al.. The pH in rumen liquid was determined at the beginning and termination of the experiment.
# Rumen liquid samples were cleaned on HLB cartridges and processed as plasma samples. PTA and PTB calibration curves were prepared in ruminal fluid deactivated by boiling for 5 minutes. The recovery of PTA and PTB in ruminal fluid was 74% (± 0.5%) and 80% (± 1.2%), respectively.
# [4] = as above; assay type: in vitro ADME, Jersey cows; settings: boiled (sterilized) or pre-frozen rumen fluid
# [5] = cited from earlier work
# [6] = set-up: method as in PMID 21456622; settings: calves fed P. esculentum, PTA dose 4.5 μmol kg^-1 b.w.; cited from earlier work
# [7] = cows fed bracken for 5 days, PTA dose 23 μmol kg^-1
SMILES,dose recovered in urine as PTA [1] [%],PTA in urine after oral administration ([2]; bracken extract or dried bracken fern),"stability of PTA in fresh rumen fluid (in words) ([3]; fresh rumen fluid, 37 °C, pH 6.6)","time during which PTA was observed in rumen liquid ([3]; fresh rumen liquid, 17 μM, 37 °C) [min]",degradation of PTA in boiled or pre-frozen rumen fluid [4],time after feeding bracken at which PTA was found in milk [5] [h],"PTA excreted in milk as share of the dose [5, 7]","plateau of PTA excreted in milk [5, 7] [µM]","PTA concentration in milk ([5]; one cow fed 6 kg freshly cut bracken daily for 7 days, PTA 540 μmol day^-1) [µM]",dose recovered in urine as PTB [1] [%],PTB recovered in urine [2],PTB recovered in urine ([2]; listed as Pterosin B),PTB as share of the added PTA ([3]; 5 min after the start of incubation) [%],"PTB concentration in rumen liquid ([3]; after 120 min, 37 °C) [µM]",PTB as share of the added PTA ([3]; final sampling (120 min)) [%],"PTB concentration in rumen liquid ([3]; starting time, rumen liquid of two cows, 37 °C)",peak concentration of PTB in plasma relative to the single dose study of this paper [6] [times]
"CC1=C[C@]2(O[C@@H]3O[C@H](CO)[C@@H](O)[C@H](O)[C@H]3O)C[C@@H](C)C(=O)[C@@H]2[C@](C)(O)C12CC2 [PTA, (2'R,3a'R,4'S,7a'R)-4'-Hydroxy-2',4',6'-trimethyl-3'-oxo-2',3',3a',4'-tetrahydrospiro[cyclopropane-1,5'-inden]-7a'(1'H)-yl β-D-glucopyranoside]",30,neither detected,detectable in rumen fluid from cow no 1 only immediately after start; also recorded: lost within few minutes,≤ 5,did not reveal any degradation; also recorded: did not degrade PTA,38,9.6 % of the dose,50,0.28,–,–,–,–,–,–,–,–
"Cc1cc2c(c(C)c1CCO)C(=O)[C@H](C)C2 [PTB, pterosin B]",–,–,–,–,–,–,–,–,–,12,up to 7 % of the dose,7 % of the dose,10,2.7,16,1.35 µM and 1.62 µM,26
